Source: US10597388B2, “Pyridazinone herbicides” (FMC CORPORATION, priority 2014, dated 2020)
Read-outs that look alike come from different tables or passages of the source.

Legend:
Type in all cases: in vivo
[1] = test system: ragweed (common ragweed, Ambrosia elatior); experiment: Test A greenhouse herbicide test, pre- and postemergence; settings: for pest or weed control at 1000 g/ha: Ambrosia artemisiifolia, 240 h
Excerpt: (§1) Seeds of plant species selected from barnyardgrass (Echinochloa crus-galli), kochia (Kochia scoparia), ragweed (common ragweed, Ambrosia elatior), ryegrass, Italian (Italian ryegrass, Lolium multiflorum), crabgrass, large (large crabgrass, Digitaria sanguinalis), foxtail, giant (giant foxtail, Setaria faberii), momingglory (Ipomoea spp.), pigweed (Amaranthus retroflexus), velvetleaf (Abutilon theophrasti), wheat (Triticum aestivum), and corn (Zea mays) were planted into a blend of loam soil and sand and treated preemergence with a directed soil spray using test chemicals formulated in a non-phytotoxic solvent mixture which included a surfactant.
(§2) At the same time, plants selected from these crop and weed species and also blackgrass (Alopecurus myosuroides), and galium (catchweed bedstraw, Galium aparine) were planted in pots containing the same blend of loam soil and sand and treated with postemergence applications of test chemicals formulated in the same manner. Plants ranged in height from 2 to 10 cm and were in the one- to two-leaf stage for the postemergence treatment. Treated plants and untreated controls were maintained in a greenhouse for approximately 10 d, after which time all treated plants were compared to untreated controls and visually evaluated for injury. Plant response ratings, summarized in Table A, are based on a 0 to 100 scale where 0 is no effect and 100 is complete control. A dash (-) response means no test result.

[2] = test system: kochia (Kochia scoparia); experiment: as above; settings: for pest or weed control at 1000 g/ha: Bassia scoparia, 240 h
Excerpt: as §1, §2

[3] = test system: corn (Zea mays); experiment: as above; settings: Postemergence
Excerpt: as §1, §2

[4] = test system: wheat (Triticum aestivum); experiment: as above; settings: Postemergence
Excerpt: as §1, §2

[5] = test system: barnyardgrass (Echinochloa crus-galli); experiment: as above; settings: for pest or weed control at 1000 g/ha: Echinochloa crus-galli, 240 h
Excerpt: as §1, §2

[6] = test system: pigweed (Amaranthus retroflexus); experiment: as above; settings: for pest or weed control at 1000 g/ha: Amaranthus retroflexus, 240 h
Excerpt: as §1, §2

[7] = test system: ryegrass, Italian (Italian ryegrass, Lolium multiflorum); experiment: as above; settings: for pest or weed control at 1000 g/ha: Lolium multiflorum, 240 h
Excerpt: as §1, §2

[8] = test system: foxtail, giant (giant foxtail, Setaria faberii); experiment: as above; settings: for pest or weed control at 1000 g/ha: Setaria faberi, 240 h
Excerpt: as §1, §2

[9] = test system: blackgrass (Alopecurus myosuroides); experiment: Test A greenhouse herbicide test, postemergence
How it was run: (§3)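 Plants grown in loam soil/sand blend pots were treated postemergence at 2 to 10 cm height, one- to two-leaf stage, with formulated test chemicals. After approximately 10 d in a greenhouse, injury was rated visually against untreated controls on a 0 to 100 scale (0 no effect, 100 complete control).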

[10] = test system: galium (catchweed bedstraw, Galium aparine); experiment: Test A greenhouse herbicide test, postemergence
How it was run: as §3

[11] = test system: barnyardgrass (Echinochloa crus-galli); experiment: Test B flooded paddy test; settings: 250 g ai/ha, Flood, visual rating on scale of 0 to 100 where 0 is no effect and 100 is complete control, 13 to 15 d after treatment
Protocol: (§4) Plant species in the flooded paddy test selected from rice (Oryza sativa), sedge, umbrella (small-flower umbrella sedge, Cyperus difformis), ducksalad (Heteranthera limosa), and barnyardgrass (Echinochloa crus-galli) were grown to the 2-leaf stage for testing. At time of treatment, test pots were flooded to 3 cm above the soil surface, treated by application of test compounds directly to the paddy water, and then maintained at that water depth for the duration of the test. Treated plants and controls were maintained in a greenhouse for 13 to 15 d, after which time all species were compared to controls and visually evaluated. Plant response ratings, summarized in Table B, are based on a scale of 0 to 100 where 0 is no effect and 100 is complete control. A dash (-) response means no test result.

[12] = test system: ducksalad (Heteranthera limosa); experiment: Test B flooded paddy test; settings: 250 g ai/ha, Flood, visual rating on scale of 0 to 100 where 0 is no effect and 100 is complete control, 13 to 15 d after treatment
Protocol: as §4

[13] = test system: sedge, umbrella (small-flower umbrella sedge, Cyperus difformis); experiment: Test B flooded paddy test; settings: 250 g ai/ha, Flood, visual rating on scale of 0 to 100 where 0 is no effect and 100 is complete control, 13 to 15 d after treatment
Protocol: as §4

[14] = test system: rice (Oryza sativa); experiment: Test B flooded paddy test; settings: 250 g ai/ha, Flood, visual rating on scale of 0 to 100 where 0 is no effect and 100 is complete control, 13 to 15 d after treatment
Protocol: as §4

[15] = Postemergence, 125 g ai/ha, 0 to 100 scale where 0 is no effect and 100 is complete control
[16] = Postemergence, 500 g ai/ha, 0 to 100 scale, 0 is no effect, 100 is complete control
[17] = Preemergence, 125 g ai/ha, 0 to 100 scale where 0 is no effect and 100 is complete control
[18] = Preemergence, 500 g ai/ha, 0 to 100 scale, 0 no effect, 100 complete control
[19] = 125 g ai/ha, 0 to 100 scale where 0 is no effect and 100 is complete control
[20] = 500 g ai/ha, 0 to 100 scale, 0 is no effect, 100 is complete control
[21] = Postemergence, 1000 g ai/ha, 0 to 100 scale, 0 is no effect, 100 is complete control
[22] = Preemergence, 1000 g ai/ha, 0 to 100 scale, 0 no effect, 100 complete control
[23] = 1000 g ai/ha, 0 to 100 scale, 0 is no effect, 100 is complete control

CCc1ccc2oc(C)c(-c3c(O)c(C)nn(C)c3=O)c2c1 [Compound 13, 4-(5-ethyl-2-methyl-3-benzofuranyl)-5-hydroxy-2,6-dimethyl-3(2H)-pyridazinone]
pest or weed control at 1000 g/ha ([1]; post-emergence, Postemergence, 1000 g ai/ha, 0 to 100 scale, 0 is no effect, 100 is complete control, read-out: Ragweed plant response rating): 30%
pest or weed control at 1000 g/ha ([1]; pre-emergence, Preemergence, 1000 g ai/ha, 0 to 100 scale, 0 no effect, 100 complete control, read-out: Plant response rating, Ragweed): 0%
pest or weed control at 1000 g/ha ([2]; post-emergence, Postemergence, 1000 g ai/ha, 0 to 100 scale, 0 is no effect, 100 is complete control, read-out: Kochia plant response rating): 30%
pest or weed control at 1000 g/ha ([2]; pre-emergence, Preemergence, 1000 g ai/ha, 0 to 100 scale, 0 no effect, 100 complete control, read-out: Plant response rating, Kochia): 20%
plant injury at 1000 g/ha ([3]; Zea mays, post-emergence, 240 h, 1000 g ai/ha, 0 to 100 scale, 0 is no effect, 100 is complete control, read-out: Corn plant response rating): 20%
plant injury at 1000 g/ha ([4]; Triticum aestivum, post-emergence, 240 h, 1000 g ai/ha, 0 to 100 scale, 0 is no effect, 100 is complete control, read-out: Wheat plant response rating): 20%
pest or weed control at 1000 g/ha ([5]; post-emergence, Postemergence, 1000 g ai/ha, 0 to 100 scale, 0 is no effect, 100 is complete control, read-out: Barnyardgrass plant response rating): 80%
pest or weed control at 1000 g/ha ([5]; pre-emergence, Preemergence, 1000 g ai/ha, 0 to 100 scale, 0 no effect, 100 complete control, read-out: Plant response rating, Barnyardgrass): 60%
pest or weed control at 1000 g/ha ([6]; post-emergence, Postemergence, 1000 g ai/ha, 0 to 100 scale, 0 is no effect, 100 is complete control, read-out: Pigweed plant response rating): 20%
pest or weed control at 1000 g/ha ([6]; pre-emergence, Preemergence, 1000 g ai/ha, 0 to 100 scale, 0 no effect, 100 complete control, read-out: Plant response rating, Pigweed): 0%
pest or weed control at 1000 g/ha ([7]; post-emergence, Postemergence, 1000 g ai/ha, 0 to 100 scale, 0 is no effect, 100 is complete control, read-out: Ryegrass, Italian plant response rating): 70%
pest or weed control at 1000 g/ha ([7]; pre-emergence, Preemergence, 1000 g ai/ha, 0 to 100 scale, 0 no effect, 100 complete control, read-out: Plant response rating, Ryegrass, Italian): 60%
pest or weed control at 1000 g/ha ([8]; post-emergence, Postemergence, 1000 g ai/ha, 0 to 100 scale, 0 is no effect, 100 is complete control, read-out: Foxtail, Giant plant response rating): 80%
pest or weed control at 1000 g/ha ([8]; pre-emergence, Preemergence, 1000 g ai/ha, 0 to 100 scale, 0 no effect, 100 complete control, read-out: Plant response rating, Foxtail, Giant): 50%
pest or weed control at 1000 g/ha ([9]; Alopecurus myosuroides, post-emergence, 240 h, 1000 g ai/ha, 0 to 100 scale, 0 is no effect, 100 is complete control, read-out: Blackgrass plant response rating): 30%
pest or weed control at 1000 g/ha ([10]; Galium, post-emergence, 240 h, 1000 g ai/ha, 0 to 100 scale, 0 is no effect, 100 is complete control, read-out: Galium plant response rating): 70%
pest or weed control at 250 g/ha ([11]; Echinochloa crus-galli, 360 h, read-out: Plant response rating, Barnyardgrass): 0%
pest or weed control at 250 g/ha ([12]; Heteranthera limosa, 360 h, read-out: Plant response rating, Ducksalad): 0%
pest or weed control at 250 g/ha ([13]; Cyperus difformis, 360 h, read-out: Plant response rating, Sedge, Umbrella): 0%
plant injury at 250 g/ha ([14]; Oryza sativa, 360 h, read-out: Plant response rating, Rice): 0%

Cc1cc(C)c2sc(C)c(-c3c(OC(=O)C(C)(C)C)c(C)nn(C)c3=O)c2c1 [Compound 43]
Plant response rating, Ragweed [1, 15]: 0
Ragweed plant response rating [1, 16]: 0
Ragweed plant response rating [1, 17]: 0
Plant response rating, Ragweed [1, 18]: 10
Plant response rating, Kochia [2, 15]: 0
Kochia plant response rating [2, 16]: 10
Kochia plant response rating [2, 17]: 50
Plant response rating, Kochia [2, 18]: 20
Plant response rating, Corn [3, 19]: 0
Corn plant response rating [3, 20]: 0
Plant response rating, Wheat [4, 19]: 0
Wheat plant response rating [4, 20]: 0
Plant response rating, Barnyardgrass [5, 15]: 0
Barnyardgrass plant response rating [5, 16]: 30
Barnyardgrass plant response rating [5, 17]: 0
Plant response rating, Barnyardgrass [5, 18]: 10
Plant response rating, Pigweed [6, 15]: 0
Pigweed plant response rating [6, 16]: 10
Pigweed plant response rating [6, 17]: 0
Plant response rating, Pigweed [6, 18]: 10
Plant response rating, Ryegrass, Italian [7, 15]: 40
Ryegrass, Italian plant response rating [7, 16]: 60
Ryegrass, Italian plant response rating [7, 17]: 10
Plant response rating, Ryegrass, Italian [7, 18]: 70
Plant response rating, Foxtail, Giant [8, 15]: 0
Foxtail, Giant plant response rating [8, 16]: 70
Foxtail, Giant plant response rating [8, 17]: 0
Plant response rating, Foxtail, Giant [8, 18]: 50
Plant response rating, Blackgrass [9, 19]: 30
Blackgrass plant response rating [9, 20]: 80
Plant response rating, Galium [10, 19]: 50
Galium plant response rating [10, 20]: 90
Plant response rating, Barnyardgrass [11]: 0
Plant response rating, Ducksalad [12]: 0
Plant response rating, Sedge, Umbrella [13]: 0
Plant response rating, Rice [14]: 0

CC(=O)COc1c(C)nn(C)c(=O)c1-c1cccc2ccccc12 [Compound 178]
Ragweed plant response rating [1, 21]: 60
Plant response rating, Ragweed [1, 22]: 0
Kochia plant response rating [2, 21]: 10
Plant response rating, Kochia [2, 22]: 0
Corn plant response rating [3, 23]: 0
Wheat plant response rating [4, 23]: 0
Barnyardgrass plant response rating [5, 21]: 0
Plant response rating, Barnyardgrass [5, 22]: 0
Pigweed plant response rating [6, 21]: 70
Plant response rating, Pigweed [6, 22]: 0
Ryegrass, Italian plant response rating [7, 21]: 70
Plant response rating, Ryegrass, Italian [7, 22]: 60
Foxtail, Giant plant response rating [8, 21]: 0
Plant response rating, Foxtail, Giant [8, 22]: 0
Blackgrass plant response rating [9, 23]: 30
Galium plant response rating [10, 23]: 70

COC(=O)COc1c(C)nn(C)c(=O)c1-c1cccc2ccccc12 [Compound 182]
Ragweed plant response rating [1, 21]: 30
Plant response rating, Ragweed [1, 22]: 0
Kochia plant response rating [2, 21]: 0
Plant response rating, Kochia [2, 22]: 0
Corn plant response rating [3, 23]: 0
Wheat plant response rating [4, 23]: 0
Barnyardgrass plant response rating [5, 21]: 0
Plant response rating, Barnyardgrass [5, 22]: 0
Pigweed plant response rating [6, 21]: 0
Plant response rating, Pigweed [6, 22]: 0
Ryegrass, Italian plant response rating [7, 21]: 0
Plant response rating, Ryegrass, Italian [7, 22]: 0
Foxtail, Giant plant response rating [8, 21]: 0
Plant response rating, Foxtail, Giant [8, 22]: 0
Blackgrass plant response rating [9, 23]: 10
Galium plant response rating [10, 23]: 50
